Measured values as given in paper PMC2654404 (Journal of molecular biology, 2008).
Several values for one entry are separate records, joined by “and”; a condition that tells them apart may be missing. Equal entries are not always repeated. Where two headings read alike, the source gives them in different places. Marks after values point to notes of the source that are not given here.

What was measured:
B. anthracis NMAT [1] = target: T1, B. anthracis NMAT (Bacillus anthracis, UniProt C3L5T6); assay type: biochemical
[2] = test system: (His)6-tag B. anthracis NMAT; assay type: biochemical, Bacillus anthracis
B. anthracis NMAT [3] = target: T1, B. anthracis NMAT; assay type: biochemical; remark: listed apart in the source
native B. anthracis NMAT [4] = assay type: biochemical, Bacillus anthracis; details: pH 7.5
native B. anthracis NMAT [5] = assay type: biochemical; details: pH 7.5
B. anthracis NMAT [6] = target: T1, B. anthracis NMAT; assay: biochemical; assay type: binding
[7] = test system: (His)6-tag B. anthracis NMAT; assay type: biochemical, Bacillus anthracis; remark: listed apart in the source
B. anthracis NMAT [8] = target: T1, B. anthracis NMAT; assay type: biochemical; remark: listed apart in the source
(His)6-tagged NMAT = (His)6-tagged NMAT (Bacillus anthracis, UniProt C3L5T6)
[9] = read-out: KD2 (dissociation constant, second site), pH 7.5

T1 sequence (C3L5T6 whole entry, looked up): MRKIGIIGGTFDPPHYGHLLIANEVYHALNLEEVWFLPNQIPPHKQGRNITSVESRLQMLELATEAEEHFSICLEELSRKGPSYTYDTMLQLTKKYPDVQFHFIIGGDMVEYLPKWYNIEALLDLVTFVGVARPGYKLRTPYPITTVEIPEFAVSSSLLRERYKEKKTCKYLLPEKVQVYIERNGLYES
(His)6-tagged NMAT, sequence (C3L5T6 whole entry, looked up): as above

## nicotinamide adenine dinucleotide phosphate [NADP]
B. anthracis NMAT [1]
  ability to activate or inhibit the NMAT reaction: None of these compounds were observed to have an effect

## OCC(O)CO [glycerol]
[2]
  effect of 10% glycerol on the steady-state kinetic parameters of ATP and NaMN: no significant change in the kinetic parameters

## O=c1ccn([C@@H]2O[C@H](CO[P@@](=O)(O)O[P@@](=O)(O)OP(=O)(O)O)[C@@H](O)[C@H]2O)c(=O)[nH]1 (stereo in doubt) [UTP, uridine triphosphate]
B. anthracis NMAT [3]
  ability to serve as substrate for NMAT in place of ATP: Only CTP and dATP were able to serve as substrates

## NC(=O)c1ccc[n+]([C@@H]2O[C@H](COP(=O)([O-])OP(=O)(O)OC[C@H]3O[C@@H](n4cnc5c(N)ncnc54)[C@H](O)[C@@H]3O)[C@@H](O)[C@H]2O)c1 [NAD, nicotinamide adenine dinucleotide]
B. anthracis NMAT [1]
  ability to activate or inhibit the NMAT reaction: None of these compounds were observed to have an effect

## O=C(O)c1ccc[n+]([C@@H]2O[C@H](COP(=O)(O)O)[C@@H](O)[C@H]2O)c1 [NaMN, nicotinate mononucleotide]
Native B. anthracis NMAT [4]
  K0.5: 110 ± 18 ^c μM and 65 ± 5 ^d μM
  kcat: 1059 ± 49 ^c min^−1 and 890 ± 16 ^d min^−1
  nH (Hill coefficient): 0.708 ± 0.004 ^c
Native B. anthracis NMAT [5]
  K0.5: 16 ± 1 ^c μM and 15 ± 1 ^d μM
  kcat: 815 ± 12 ^c min^−1 and 782 ± 7 ^d min^−1
  nH (Hill coefficient): 0.806 ± 0.004 ^c
B. anthracis NMAT [6]; pH 7.5
  ΔH1: ΔH1= −5385 ± 47 cal/mol
  ΔH2: ΔH2= −3954 ± 183 cal/mol
  ΔS1: ΔS1= −2.4 cal/mol*K
  ΔS2: ΔS2= −3.9 cal/mol*K
B. anthracis NMAT [6]; read-out: KD1 (dissociation constant, first site), pH 7.5
  Kd: 382 µM
B. anthracis NMAT [6]; [9]
  Kd: 9210 µM
[7]
  difference in K0.5 between the continuous and discontinuous assays: ~4 fold

## Nc1ccn([C@@H]2O[C@H](COP(=O)(O)OP(=O)(O)O)[C@@H](O)[C@H]2O)c(=O)n1 [CDP, cytidine diphosphate]
B. anthracis NMAT [3]
  ability to serve as substrate for NMAT in place of ATP: Only CTP and dATP were able to serve as substrates

## NC(=O)c1ccc[n+]([C@@H]2O[C@H](COP(=O)([O-])O)[C@@H](O)[C@H]2O)c1 [NMN, nicotinamide mononucleotide]
B. anthracis NMAT [8]
  activity of NMAT with the mononucleotide as substrate: little to no activity
B. anthracis NMAT [1]
  ability to activate or inhibit the NMAT reaction: None of these compounds were observed to have an effect

## Nc1ccn([C@@H]2O[C@H](COP(=O)(O)OP(=O)(O)OP(=O)(O)O)[C@@H](O)[C@H]2O)c(=O)n1 [CTP, cytidine triphosphate]
B. anthracis NMAT [3]
  ability to serve as substrate for NMAT in place of ATP: able to serve as substrates

## Nc1ncnc2c1ncn2[C@@H]1O[C@H](COP(=O)(O)OP(=O)(O)OP(=O)(O)O)[C@@H](O)[C@H]1O [ATP, adenosine triphosphate]
Native B. anthracis NMAT [4]
  kcat: 1240 ± 111 ^c min^−1 and 864 ± 19 ^d min^−1
  nH (Hill coefficient): 0.661 ± 0.004 ^c
Native B. anthracis NMAT [5]
  kcat: 973 ± 120 ^c min^−1 and 702 ± 20 ^d min^−1
  nH (Hill coefficient): 0.621 ± 0.007 ^c
[2]; pH 7.5
  K0.5: 142 ± 28 μM and 142 ± 28 ^c μM and 79 ± 6 ^d μM
B. anthracis NMAT [6]
  Kd: 215 µM
B. anthracis NMAT [6]; pH 7.5
  ΔH1: ΔH1= −5348 ± 216 cal/mol
  ΔH2: ΔH2= −1.4E4 ± 350 cal/mol
  ΔS1: ΔS1= −1.2 cal/mol*K
  ΔS2: ΔS2= −36 cal/mol*K
B. anthracis NMAT [6]; [9]
  Kd: 3720 µM
[7]
  difference in K0.5 between the continuous and discontinuous assays: ~4 fold

## Cc1cn([C@H]2C[C@H](O)[C@@H](COP(=O)(O)OP(=O)(O)O)O2)c(=O)[nH]c1=O [TDP, thymidine diphosphate]
B. anthracis NMAT [3]
  ability to serve as substrate for NMAT in place of ATP: Only CTP and dATP were able to serve as substrates

## Nc1ncnc2c1ncn2[C@@H]1O[C@H](COP(=O)(O)OP(=O)(O)O)[C@@H](O)[C@H]1O [ADP]
B. anthracis NMAT [3]
  ability to serve as substrate for NMAT in place of ATP: Only CTP and dATP were able to serve as substrates
B. anthracis NMAT [1]
  ability to activate or inhibit the NMAT reaction: None of these compounds were observed to have an effect

## N[C@@H](CC(=O)O)C(=O)O [L-aspartic acid]
B. anthracis NMAT [1]
  ability to activate or inhibit the NMAT reaction: None of these compounds were observed to have an effect

## Nc1ncnc2c1ncn2[C@H]1C[C@H](O)[C@@H](COP(=O)(O)OP(=O)(O)OP(=O)(O)O)O1 [dATP, Deoxyadenosine triphosphate]
B. anthracis NMAT [3]
  ability to serve as substrate for NMAT in place of ATP: able to serve as substrates

## O=C(CO)COP(=O)(O)O [DHAP, dihydroxyacetone phosphate]
B. anthracis NMAT [1]
  ability to activate or inhibit the NMAT reaction: None of these compounds were observed to have an effect

## Nc1ncnc2c1ncn2[C@@H]1O[C@H](COP(=O)(O)OP(=O)(O)OC[C@H]2O[C@@H]([n+]3cccc(C(=O)O)c3)[C@H](O)[C@@H]2O)[C@@H](O)[C@H]1O [NaAD, nicotinate adenine dinucleotide]
(His)6-tagged NMAT
  pattern of inhibition by the reaction product, ATP as variable substrate: competitive inhibition
  pattern of inhibition by the reaction product, NaMN as variable substrate: competitive inhibition
B. anthracis NMAT [6]; pH 7.5
  Stoichiometry to monomer: 0.924 ± 0.003
  ΔH: -6.446 ± 0.03 kcal/mol
  ΔS: ΔS=3.5 cal/mol*K
B. anthracis NMAT [6]; read-out: KD (dissociation constant), pH 7.5
  Kd: 3.2 ± 0.8 µM

## O=C(O)c1cccnc1C(=O)O [quinolic acid]
B. anthracis NMAT [1]
  ability to activate or inhibit the NMAT reaction: None of these compounds were observed to have an effect

## Nc1nc2c(ncn2[C@@H]2O[C@H](COP(=O)(O)OP(=O)(O)O)[C@@H](O)[C@H]2O)c(=O)[nH]1 [GDP, guanosine diphosphates]
B. anthracis NMAT [3]
  ability to serve as substrate for NMAT in place of ATP: Only CTP and dATP were able to serve as substrates

## O=c1ccn([C@@H]2O[C@H](COP(=O)(O)OP(=O)(O)O)[C@@H](O)[C@H]2O)c(=O)[nH]1 [UDP, uridine diphosphate]
B. anthracis NMAT [3]
  ability to serve as substrate for NMAT in place of ATP: Only CTP and dATP were able to serve as substrates

## Nc1nc2c(ncn2[C@@H]2O[C@H](COP(=O)(O)OP(=O)(O)OP(=O)(O)O)[C@@H](O)[C@H]2O)c(=O)[nH]1 [GTP, guanosine triphosphate]
B. anthracis NMAT [3]
  ability to serve as substrate for NMAT in place of ATP: Only CTP and dATP were able to serve as substrates

## O=c1[nH]cnc2c1ncn2[C@@H]1O[C@H](COP(=O)(O)OP(=O)(O)O)[C@@H](O)[C@H]1O [IDP, inosine diphosphate]
B. anthracis NMAT [3]
  ability to serve as substrate for NMAT in place of ATP: Only CTP and dATP were able to serve as substrates

## O=P(O)(O)OC[C@H]1O[C@H](OP(=O)(O)OP(=O)(O)O)[C@H](O)[C@@H]1O [PRPP, 5-phospho-ribose-1-pyrophosphate]
B. anthracis NMAT [1]
  ability to activate or inhibit the NMAT reaction: None of these compounds were observed to have an effect

## Nc1ncnc2c1ncn2[C@@H]1O[C@H](COP(=O)(O)O)[C@@H](O)[C@H]1O [AMP]
B. anthracis NMAT [3]
  ability to serve as substrate for NMAT in place of ATP: Only CTP and dATP were able to serve as substrates
B. anthracis NMAT [1]
  ability to activate or inhibit the NMAT reaction: None of these compounds were observed to have an effect
